Laboratory results from publication PMC6520475 (European Journal of Drug Metabolism and Pharmacokinetics, 2018).

Key:
[1] = general statement, no reference given; cited from earlier work
[2] = cited from earlier work
[3] = Population pharmacokinetic; conditions: base model without covariates

θ1CL, population typical value of CL, base model [3]: 2.47 L/h
θ2Vd, population typical value of Vd, base model [3]: 142 L
SMILES: CN[C@H](CC(C)C)C(=O)N[C@H]1C(=O)N[C@@H](CC(N)=O)C(=O)N[C@H]2C(=O)N[C@H]3C(=O)N[C@H](C(=O)N[C@H](C(=O)O)c4cc(O)cc(O)c4-c4cc3ccc4O)[C@H](O)c3ccc(c(Cl)c3)Oc3cc2cc(c3O[C@@H]2O[C@H](CO)[C@@H](O)[C@H](O)[C@H]2O[C@H]2C[C@](C)(N)[C@H](O)[C@H](C)O2)Oc2ccc(cc2Cl)[C@H]1O [vancomycin]
Fraction of vancomycin excreted through the kidney [1]: 90%
Vd, PopPK model ([2]; Adult Chinese patients, n = 72, 1-compartment model, ref 7 (Deng)): 47.76 L
V2, PopPK model ([2]; Adult Gram-positive bacterial infection in ICU, n = 103, ref 25 (Weng Fangjuan)): 44.2 L
CL, PopPK model ([2]; MRSA infectors, n = 76, 1-compartment model, ref 11 (Leu)): CLCR
